Source: US20070213297A1, “Arrays with cleavable linkers” (priority 2004, published 2007)
Marks after values point to notes of the source that are not given here.

Tests used:
chicken ST6GalNAc-I = target: T1, chicken ST6GalNAc-I (Gallus gallus, UniProt Q92183); experiment: chST6GalNAc-I activity on small acceptor molecules; assay type: biochemical; conditions: α-D-galacto derivatives as acceptors
T1 construct: made in house; host or cells: insect cells
Description: The inventors have previously reported the cloning, expression, and characterization of chicken ST6GalNAc-I and its use in preparative synthesis of the O-linked sialoside antigens, STn-, α(2-6)SiaT-, α(2-3)SiaT- and Di-SiaT-antigen. Blixt, O.; Allin, K.; Pereira, L.; Datta, A. and Paulson, J. C., J. Am. Chem. Soc. 2002, 124, 5739-5746. Briefly, the recombinant enzyme was expressed in insect cells and purified by CDP-sepharose affinity chromatography to generate approximately 10 U/L of cell culture.

β3GlcNAcT = β3GlcNAcT acceptor specificity; assay type: biochemical, N. meningitidis; conditions: as acceptor substrate; lactose (4) = 100%
Procedure: Both enzymes, β4GalT-GalE and β3GlcNAcT, were over expressed in E. coli AD202 in a large-scale fermentor (100 L). Bacteria were cultured in 2YT medium and induced with iso-propyl-thiogalactopyranoside (IPTG) to ultimately produce 8-10 g of bacterial cell paste/L cell media. The enzymes were then released from the cells by a microfluidizer and were solubilized in Tris buffer (25 mM, pH 7.5) containing manganese chloride (10 mM) and Triton X (0.25%) to reach enzymatic activities of about 50 U/L and 115 U/L of cell culture β4GalT-GalE and β3GlcNAcT, respectively.
The structures of these disaccharides are provided below. [drawing 17]
Adding the hydrophobic para-nitrophenyl ring as an aglycon to the reducing end of the acceptors enhanced the activity of the enzyme up to 10 fold (compare 4 with 5 and 6 with 7). The increase in the enzyme activity by adding a hydrophobic aglycon to the acceptor sugar, though to the lesser extent, has also been shown for β4GalT (compare 12 with 13, 14). The relaxed substrate specificity of these enzymes makes them very useful for preparative synthesis of various carbohydrate structures, including poly-N-acetyllactosamines.

2G12 anti-HIV antibody = experiment: 2G12 binding to glycan array printed on glass slide; parameters: species or system human; conditions: for Rel. spec. (relative binding activity of 2G12): glass slide glycan array, 2G12 pre-complexed with anti-IgG-FITC; for 2G12 binding on glycan array (in words): initial experiments
Procedure: Construction of a glycan array printed on a glass slide: The library of carbohydrate structures was obtained through chemical and chemo-enzymatic synthesis as described above, as well as natural sources. This compound library contained a N-hydroxy succinimide (NHS)-reactive primary amino group, which was printed on a commercial NHS-activated glass surface (Accelr8 Technology Corporation, Denver, Colo.) using a microarray gene printer (TSRI).
Each glycan type was printed (≈0.5 nL/spot) at various concentrations (10-100 μM) and each concentration in a replicate of six. Slides were further incubated with ethanolamine buffer to deactivate remaining NHS functional groups.
The 2G12 antibody was pre-complexed (for 10 min) with secondary human anti-IgG-FITC (2:1, 20 μg/mL) prior to application to the glycan array. After incubation with the 2G12 antibodies, the array washed by dipping the slide in buffer and water.

2G12 antibody [1] = experiment: 2G12 binding, cleavable linker glycan array in microtiter plates; parameters: species or system human
Procedure: Cleavable Linker Glycan Array in Microtiter Plates: Further experiments were performed using glycans immobilized within microtiter wells with the cleavable triazole linkers described in Example 7 as shown in FIG. 11.
2G12 Binding: After washing with QH2O, wells were blocked with 10 mM HEPES buffer, pH 7.5/150 mM NaCl buffer (200 μL) containing 0.1% Tween-20 over 1 h at 4° C. The buffer was then removed and 2G12 (17 μg/mL PBS buffer; 200 μL) was incubated in the well over 1 h at 4° C. Wells were then washed with PBS buffer (3×; 200 μL) and fluorescein-conjugated Goat Anti-Human IgG antibody (14 μg/mL PBS buffer; 200 μL) was incubated in the well over 1 h in the dark at 4° C. Wells were then washed with PBS buffer (3×; 200 μL) and fluorescence was measured with an excitation wavelength of 485 nm and emission wavelength of 535 nm.
Further studies were performed using a cleavable linker array to clarify the types of mannose-containing glycans bound by the 2G12 anti-HIV antibodies. […] The results of a binding study using increasing amounts of labeled Manα1,2Manα1,3Manα1,2 Manα1,6Man glycan with a constant amount of 2G12 antibody are shown in FIG. 16.

2G12 antibody [2] = experiment: Carbohydrate microarray analysis of oligomannose-2G12 binding (microtiter plate); parameters: species or system human
Procedure: Carbohydrate microarray analysis. Ninety-six well NHS-coated microtiter plates (NoAb Biodiscoveries) were treated with 200 μL of a 1 mM methanolic solution of the amino-functionalized disulfide and alkyne containing linker (scheme V) containing 5% diisopropylethylamine (DIEA) and incubated overnight at 4° C. The microtiter plate was then washed with 2×200 μL methanol and 2×200 μL water. Next, 200 μL solutions of azido-functionalized oligomannose derivatives 21-25 at varying concentrations from 0 to 500 μM in 5% DIEA/methanol were introduced. A sprinkle of copper (I) iodide was added and the contents were allowed to react overnight at 4° C. The next day, the contents were removed and the plates were washed with 2×200 μL methanol and 2×200 μL water. The plates were then blocked with 0.1% Tween20 solution in HEPES buffer pH 7.5 at 4° C. for 1 hour and then washed with 3×200 μL HEPES buffer. […] Detection of the FITC-tagged secondary antibody was performed in 200 μL water using a fluorescence plate reader. […]
Carbohydrate Microarray Analysis. […] Kd values for the interaction of 2G12 with oligomannoses 4, 5, 7, 8, 9 (Table 9) were determined using a microtiter-based assay with detection via a fluorescent secondary antibody (see Bryan et al. (2004) J. Am. Chem. Soc. 126, 8640-41).

T1 sequence (Q92183 whole entry): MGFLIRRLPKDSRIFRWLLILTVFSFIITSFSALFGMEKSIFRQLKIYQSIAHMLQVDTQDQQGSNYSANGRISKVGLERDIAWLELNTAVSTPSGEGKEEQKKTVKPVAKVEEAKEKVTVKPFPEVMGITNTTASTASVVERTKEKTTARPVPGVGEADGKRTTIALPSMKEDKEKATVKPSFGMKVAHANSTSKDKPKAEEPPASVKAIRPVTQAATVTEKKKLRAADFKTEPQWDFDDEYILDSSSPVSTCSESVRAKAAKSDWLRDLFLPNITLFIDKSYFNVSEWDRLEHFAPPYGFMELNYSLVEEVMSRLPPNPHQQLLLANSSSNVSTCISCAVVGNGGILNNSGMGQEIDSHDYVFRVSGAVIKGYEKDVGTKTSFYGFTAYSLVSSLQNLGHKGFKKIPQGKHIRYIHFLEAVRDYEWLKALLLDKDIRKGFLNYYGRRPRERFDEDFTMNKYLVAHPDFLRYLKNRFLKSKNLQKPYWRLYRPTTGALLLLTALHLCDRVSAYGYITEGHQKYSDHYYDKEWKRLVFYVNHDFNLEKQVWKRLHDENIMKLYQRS

Compound: CC(=O)N[C@@H]1[C@@H](O)[C@@H](O)[C@@H](CO)O[C@@H]1O [D-GaINAc, reference compound]
- chST6GalNAc-I activity, cpm (chicken ST6GalNAc-I): 0 cpm
- chST6GalNAc-I activity, nmol/mg x min^−1 (chicken ST6GalNAc-I): 0.00 nmol/mg x min^−1

Compound: OCC1O[C@@H](O)C(O)[C@@H](O)[C@@H]1O[C@@H]1OC(CO)[C@H](O)[C@H](O)C1O (stereo partly shown) [Compound 4]
- Relative enzyme activity (%) β(1-3)GlcNAcT-activity (β3GlcNAcT): 100%
- Rel. spec. (relative binding activity of 2G12) (2G12 anti-HIV antibody): − (- = <1000)
- chST6GalNAc-I activity, nmol/mg x min^−1 (chicken ST6GalNAc-I): 2.90 nmol/mg x min^−1

Compound: Manα1,2Manα1,3Manα1,2 Manα1,6Man
- 2G12 epitope/affinity (in words) (2G12 antibody [1]): optimal epitope(s) with micromolar affinity to 2G12

Compound: Manα1,2 Manα1,2 Manα1,3Man
- 2G12 epitope/affinity (in words) (2G12 antibody [1]): optimal epitope(s) with micromolar affinity to 2G12
- Kd (2G12 antibody [1]): 100 nM

Compound: NCCCCCO[C@H]1O[C@H](CO[C@H]2O[C@H](CO)[C@@H](O)[C@H](O)[C@@H]2O[C@H]2O[C@H](CO)[C@@H](O)[C@H](O)[C@@H]2O)[C@@H](O)[C@H](O[C@H]2O[C@H](CO)[C@@H](O)[C@H](O)[C@@H]2O[C@H]2O[C@H](CO)[C@@H](O)[C@H](O)[C@@H]2O)[C@@H]1O [Oligomannose 5]
- 2G12 affinity ranking (in words) (2G12 antibody [2]): greatest affinity

Compound: Man-8#aa Man8-aminoacid [Glycan 144]
- 2G12 binding on glycan array (in words) (2G12 anti-HIV antibody): Binding was observed

Compound: Man-9#aa Man9-aminoacid [Glycan 145]
- 2G12 binding on glycan array (in words) (2G12 anti-HIV antibody): smaller level of binding

Compound: CC(=O)N[C@H]1C(O)O[C@H](CO)[C@@H](O[C@@H]2O[C@H](CO)[C@H](O)[C@H](O)[C@H]2O)[C@@H]1O (stereo partly shown) [Compound 6]
- Relative enzyme activity (%) β(1-3)GlcNAcT-activity (β3GlcNAcT): 7%
- Rel. spec. (relative binding activity of 2G12) (2G12 anti-HIV antibody): − (- = <1000)
- chST6GalNAc-I activity, nmol/mg x min^−1 (chicken ST6GalNAc-I): 12.50* nmol/mg x min^−1

Compound: O=[N+]([O-])c1ccc(O[C@@H]2OC(CO)[C@@H](O[C@@H]3OC(CO)[C@H](O)[C@H](O)C3O)[C@H](O)C2O)cc1 (stereo partly shown) [Compound 5]
- Rel. spec. (relative binding activity of 2G12) (2G12 anti-HIV antibody): − (- = <1000)
- chST6GalNAc-I activity, nmol/mg x min^−1 (chicken ST6GalNAc-I): 1.30 nmol/mg x min^−1
